Results taken from US20100227853A1, “INHIBITORS OF CYCLIC AMP PHOSPHODIESTERASES” (Trustees of Boston College, priority 2008, published 2010).

What was measured:
PDE4A5 = molecular target: T1, PDE4A5 (Rattus norvegicus, UniProt P54748); experiment: 5FOA growth assay in fission yeast strain expressing PDE4A5; type: cell-based; settings: for Composite Z score, PDE4A5: high throughput 5FOA growth screen
T1 construct: targets used in the assays are full-length proteins (as opposed to simply the catalytic domain); expressed in transfected cells; host or cells: Schizosaccharomyces pombe, PDE gene integrated in place of cgs2
T1 sequence (P54748 1-844): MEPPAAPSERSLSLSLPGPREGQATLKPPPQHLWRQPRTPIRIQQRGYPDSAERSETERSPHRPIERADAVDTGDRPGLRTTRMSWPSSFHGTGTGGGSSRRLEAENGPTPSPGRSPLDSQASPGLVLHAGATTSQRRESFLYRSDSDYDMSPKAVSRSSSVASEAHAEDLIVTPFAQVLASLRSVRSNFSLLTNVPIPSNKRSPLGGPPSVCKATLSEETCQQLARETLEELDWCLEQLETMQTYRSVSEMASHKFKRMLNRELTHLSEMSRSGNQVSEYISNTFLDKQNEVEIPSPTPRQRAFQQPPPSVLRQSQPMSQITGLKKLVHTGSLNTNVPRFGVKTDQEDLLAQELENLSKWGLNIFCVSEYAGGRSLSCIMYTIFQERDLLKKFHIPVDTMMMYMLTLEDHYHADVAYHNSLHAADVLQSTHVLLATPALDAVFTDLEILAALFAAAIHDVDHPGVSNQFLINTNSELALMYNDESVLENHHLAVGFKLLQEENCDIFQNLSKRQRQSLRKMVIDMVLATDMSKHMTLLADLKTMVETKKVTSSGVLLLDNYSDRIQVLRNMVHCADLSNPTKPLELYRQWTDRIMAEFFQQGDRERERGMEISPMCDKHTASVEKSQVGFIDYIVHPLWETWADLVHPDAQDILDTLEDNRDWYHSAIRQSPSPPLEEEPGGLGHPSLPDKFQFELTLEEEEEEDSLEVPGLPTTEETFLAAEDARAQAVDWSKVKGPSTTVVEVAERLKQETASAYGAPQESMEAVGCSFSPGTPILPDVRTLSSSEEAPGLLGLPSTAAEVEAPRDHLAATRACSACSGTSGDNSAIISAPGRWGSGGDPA
Protocol: High throughput drug screens were carried out at the Broad Institute's Chemical Biology Program screening facility (Broad Institute, Cambridge, Mass.). Depending upon the strain, cultures were pregrown to exponential phase in EMM complete medium containing from 0.5 to 2.5 mM cAMP to repress fbp1-ura4 transcription. Cells were collected by centrifugation, resuspended in 5FOA medium, and 25 μl were transferred to 384-well microtiter dishes (untreated, with flat clear bottoms) that had been pre-filled with 25 μl 5FOA medium and pre-pinned with 100 nl of compounds (stock solutions were generally 10 mM) from a subset of the Prestwick Bioactive and the Microsource Spectrum compound libraries. Starting cell concentrations ranged from 0.5×10^5 to 4×10^5 cells/ml depending on the screening strain. […] Other positive control dishes contained 5 mM cAMP in the 5FOA medium. Cultures were grown for 48 hours at 30° C., sealed in an airtight container with moist paper towels to prevent evaporation. Optical densities (OD600) of cultures were measured using a microplate reader. Bioinformatic analysis of the results to determine composite Z scores was performed as previously described^30, 31.
Cells were pregrown in EMM medium [MP Biomedicals (Solon, Ohio), 3% glucose, filter-sterilized to avoid carmelization, which would introduce variability into the optical density of the medium] containing from 0 mM to 2.5 mM cAMP (or either 0.5 mM or 1.0 mM cGMP). This was to repress expression of the fbp1-ura4 reporter prior to exposure of cells to 5FOA medium. Cells were grown at 30° C. to exponential phase (approximately 10^7 cells/ml). Cells were collected by centrifugation and resuspended in 5FOA medium, and 25 μl were transferred to 384-well microtiter dishes (untreated, with flat clear bottoms) that had been pre-filled with 25 μl 5FOA medium and pre-pinned with 100 nl of compounds (stock solutions were generally 10 mM). Starting cell concentrations ranged from 0.5×10^5 to 4×10^5 cells/ml depending on the screening strain. […] Other positive control dishes contained 5 mM cAMP in the 5FOA medium for PDEs that lack appropriate control compounds. Cultures were grown for 48 hours at 30° C., sealed in an airtight container with moist paper towels to prevent evaporation. Optical densities (OD600) of cultures were measured using a microplate reader. Bioinformatic analysis of the results to determine composite Z scores was performed as previously described (1, 3).

[1] = test system: PDE4A, PDE4B, PDE4D, PDE7A, PDE7B, PDE8A, PDE3A; experiment: Summary of PDE inhibitor profile; design: key to PDE inhibitor profile (Table 17): (1): Strong PDE4A, PDE4B inhibitor; (2): Strong PDE4A inhibitor; (3): Strong PDE4B, moderate PDE4A inhibitor; (4): Moderate PDE4A, PDE4B inhibitor; (5): Moderate PDE4B inhibitor; key to inhibitor class, Table 15: (1): Strong PDE4A5 inhibitor; (2): Strong PDE4A, 4B inhibitor; Moderate PDE4D inhibitor; (3): Strong PDE4A. 4B inhibitor; (4): Strong PDE4A, 4B, PDE7A inhibitor: Weak PDE4D inhibitor; settings: for PDE inhibitor profile (Table 17): overall classification, Table 17 footnotes

| SMILES | Composite Z score, PDE4A5 (PDE4A5) | also measured |
| --- | --- | --- |
| c1nc(NCCCN2CCOCC2)c2c3c(sc2n1)CCCC3 [Compound 2051N22] | −4.733 |  |
| Cc1c(C(=O)NCCC(C)C)sc2ncnc(N3CCOCC3)c12 [Compound 2040F13] | −0.722 |  |
| Cc1c(C(=O)Nc2ccc(F)cc2F)sc2ncnc(N(C)c3ccccc3)c12 [Compound 58-9] | 111.95 |  |
| CCCCn1c2ccccc2c2nc3ccccc3nc21 [2013, I20] |  | 1 Assay (20 uM) 4A5 (PDE4A5; PDE 4A5): 71.82 ND ND ND ND; PDE inhibitor profile (Table 17) [1]: 2013, I20 (1) |
| CC(C)Cn1c2ccc(Br)cc2c2nc3ccccc3nc21 [2015, L04] |  | 1 Assay (20 uM) 4A5 (PDE4A5; PDE 4A5): 57.60 ND ND ND ND; PDE inhibitor profile (Table 17) [1]: 2015, L04 (1) |
| CCNc1nc(SCc2ccc(Cl)cc2)nc2sc3c(c12)CCN(C)C3 [Compound 2054P05] | 1.0025 |  |
| CNc1nc(=S)[nH]c2sc3c(c12)CCCC3 [2054 E08] | −0.378 |  |
| Cc1nc(N2CCC(C)CC2)c2c(C)c(C(=O)N3CCN(c4ccc(F)cc4)CC3)sc2n1 [Compound 2040N10] | 1.3723 |  |
| c1ccc(CCn2c3ccccc3c3nc4ccccc4nc32)cc1 [2019, G03] |  | 1 Assay (20 uM) 4A5 (PDE4A5; PDE 4A5): 49.61 ND ND ND ND; PDE inhibitor profile (Table 17) [1]: 2019, G03 (4) |
| CC1CC(=O)N(c2ncnc3sc4c(c23)CCCC4)N1 (centres unmarked) [2054 E16] | 0.5516 |  |
| Cc1cc(C)c(C)c(S(=O)(=O)N2CCN(c3ncnc4sc5c(c34)CCCC5)CC2)c1C [Compound 2012L13] | −0.334 |  |
| O=C(/C=C/c1ccccc1)Nc1ncnc2sc3c(c12)CCC3 [Compound 2008K11] | −4.329 |  |
| COc1ccc(NC(=O)c2sc3nc(C)nc(N(C)c4ccc(C(C)C)cc4)c3c2C)c(OC)c1 [Compound 2041I04] | 1.1627 |  |
| CCOC(=O)c1sc2nc(C)nc(N(C)Cc3ccccc3)c2c1C [Compound 2007L04] | 13.196 |  |
| COC(=O)C1=C(C)N(c2ccccc2)/C(=C/c2cccs2)C1=O [2008, K19] |  | 1 Assay (20 uM) 4A5 (PDE4A5): 0.06 ND ND ND ND; inhibitor class, Table 15 [1]: 2008, K19 (1) |
| CCN(CC)c1ncnc2sc(C(=O)N(C)C3CCCCC3)c(C)c12 [Compound 2040J12] | −0.227 |  |
| Cc1nc(N2CCCCC2)c2c(C)c(C(=O)Nc3cccc(C(F)(F)F)c3)sc2n1 [Compound 2040F10] | 1.7466 |  |

| SMILES | Composite Z score, PDE4A5 (PDE4A5) | also measured |
| --- | --- | --- |
| Cc1c(C(=O)N(C)Cc2ccccc2)sc2ncnc(N3CCN(c4ccccc4)CC3)c12 [Compound 2041G21] | 0.7964 |  |
| CC(C)CC(Nc1ncnc2sc3c(c12)CCC3)C(=O)O (centres unmarked) [Compound 2012H20] | −0.102 |  |
| CCOC(=O)c1ccccc1NC(=O)c1sc2nc(C)nc(N(CC)CC)c2c1C [Compound 2040P12] | 1.3091 |  |
| CCc1ccc2c(c1)c1nc3ccccc3nc1n2CC [2015, P06] |  | 1 Assay (20 uM) 4A5 (PDE4A5; PDE 4A5): 51.82 ND ND ND ND; PDE inhibitor profile (Table 17) [1]: 2015, P06 (4) |
| Cc1nc(NCCc2ccccc2)c2c3c(sc2n1)CCCC3 [Compound 2008G09] | −4.881 |  |
| COc1cccc(NC(=O)c2sc3ncnc(N4CCc5ccccc5C4)c3c2C)c1 [Compound 2041K21] | 33.878 |  |
| CCC(C)NC(=O)c1sc2nc(C)nc(N(C)c3ccc(C(C)C)cc3)c2c1C (centres unmarked) [Compound 2041K04] | 10.539 |  |
| COC(=O)C1/C(=C/c2cccc(OC)c2O)C(=O)N(c2ccccc2F)C1C (centres unmarked) [2008, C21] |  | 1 Assay (20 uM) 4A5 (PDE4A5): 1.80 ND ND ND ND; inhibitor class, Table 15 [1]: 2008, C21 (2) |
| Cc1ccc2c(c1)c1nc3ccccc3nc1n2C(C)C [Compound 41] |  | 1 Assay (20 uM) 4A5 (PDE4A5; PDE 4A5): 84.08; PDE inhibitor profile (Table 17) [1]: 41 (1) |
| COc1cc(OC)c(NC(=O)c2sc3ncnc(N4CCCCC4C)c3c2C)cc1Cl (centres unmarked) [Compound 2040J10] | 0.4891 |  |
| COC(=O)C1=C(C)N(c2ccc(C(C)C)cc2)C(=O)/C1=C\c1ccco1 [2008, 019] |  | 1 Assay (20 uM) 4A5 (PDE4A5): 1.73 ND ND ND ND; inhibitor class, Table 15 [1]: 2008, 019 (1) |
| C=CCn1c2ccc(Br)cc2c2nc3ccccc3nc21 [2017, C18] |  | 1 Assay (20 uM) 4A5 (PDE4A5; PDE 4A5): 69.70 ND ND ND ND; PDE inhibitor profile (Table 17) [1]: 2017, C18 (4) |
| COc1ccccc1CNC(=O)c1sc2ncnc(N3CCN(c4ccccc4F)CC3)c2c1C [2041 E21] | 2.4446 |  |
| Cc1c(C(=O)N2CCCCCC2)sc2ncnc(N3CCN(c4ccccc4)CC3)c12 [Compound 2041I21] | −0.939 |  |
| O=C(O)CCNc1ncnc2sc3c(c12)CCCC3 [Compound 2012O16] | 0.289 |  |
| C=Cn1c2ccccc2c2nc3ccccc3nc21 [2033, H06] |  | 1 Assay (20 uM) 4A5 (PDE4A5; PDE 4A5): 66.58 ND ND ND ND; PDE inhibitor profile (Table 17) [1]: 2033, H06 (4) |

Continued, in another order:

| Composite Z score, PDE4A5 (PDE4A5) | SMILES | also measured |
| --- | --- | --- |
| −0.22 | CCNc1nc(SCC(=O)OCC)nc2sc3c(c12)CCC(C)C3 (centres unmarked) [Compound 2053H16] |  |
| 3.411 | Cc1c(C(=O)NCCC2CCCCC2)sc2ncnc(N3CCCCC3C)c12 (centres unmarked) [Compound 2040H10] |  |
| 2.0846 | OCCNc1ncnc2sc3c(c12)CCCC3 [Compound 2051H22] |  |
| −10.3 | CCOC(=O)c1sc2nc(C)nc(N3CCC(C)CC3)c2c1C [Compound 2007D06] |  |
| 0.9752 | CCN(CC)c1nc(C)nc2sc(C(=O)Nc3cc(Cl)ccc3OC)c(C)c12 [Compound 2040L12] |  |
| 26.878 | O=C(Nc1ncnc2sc3c(c12)CCCCC3)c1ccc(F)cc1 [Compound 2012F09] |  |
| −0.897 | CCOC(CNc1nc(C)nc2sc3c(c12)CCCC3)OCC [Compound 2040D04] |  |
| 2.5342 | CCOC(=O)c1sc2nc(Cc3ccccc3)nc(NCCC3CCCCC3)c2c1C [Compound 2040F07] |  |
| −0.574 | c1csc(CCNc2ncnc3sc4c(c23)CCC4)c1 [Compound 2005M12] |  |
| 20.422 | COc1ccc(CCNc2ncnc3sc4c(c23)CCCC4)cc1 [Compound 2012B19] |  |
| −10.26 | CCCCN(CC)C(=O)c1sc2ncnc(N3CCN(c4ccc(OC)cc4)CC3)c2c1C [Compound 2007H06] |  |
| 1.0728 | CCNc1nc(SCC(=O)NC(=O)NCc2ccccc2)nc2sc3c(c12)CCN(C)C3 [Compound 2054N05] |  |
| −0.705 | CCN(CC)c1nc(C)nc2sc(C(=O)N3CCCCCC3)c(C)c12 [Compound 2040N12] |  |
